Data set [1] concerns the target Human JNK1α1 (Homo sapiens (Human), UniProt P45983). Briefly: JNK assay in vitro, phosphorylation of GST-ATF2 (19-96) with [γ-33P] ATP. Type of data set: biochemical. The note with it: Human JNK1α1, 2 nM enzyme, 1 μM ATF2, 6 μM ATP; read-out: JNK1 − IC50. On the procedure:
(§1) JNK activity was measured by phosphorylation of GST-ATF2 (19-96) with [γ-^33P] ATP. […] Human JNK2α2 assay contains 1 nM enzyme, 1 μM ATF2, 8 μM ATP with 1 μCi [γ-^33P] ATP. Human JNK1α1 assay contains 2 nM enzyme, 1 μM ATF2, 6 μM ATP with 1 μCi [γ-^33P] ATP. Human JNK3 (Upstate Biotech #14-501M) assay contains 2 nM enzyme, 1 μM ATF2, 4 μM ATP with 1 μCi [γ-^33P] ATP. The enzyme assay was carried out in the presence or absence of several compound concentrations. JNK and compound were pre-incubated for 10 min, followed by initiation of the enzymatic reaction by adding ATP and the substrate. The reaction mixture was incubated at 30° C. for 30 min. At the end of incubation, the reaction was terminated by transferring 25 μl of the reaction mixture to 150 μl of 10% glutathione Sepharose® slurry (Amersham #27-4574-01) containing 135 mM EDTA. The reaction product was captured on the affinity resin, and washed on a filtration plate (Millipore, MABVNOB50) with phosphate buffered saline for six times to remove free radionucleotide. The incorporation of ^33P into ATF2 was quantified on a microplate scintillation counter (Packard Topcount). Compound inhibition potency on JNK was measured by IC50 value generated from ten concentration inhibition curves fitted into the 3-parameter model: % inhibition=Maximum/(1+(IC50/[Inhibitor])^slope). Data were analyzed on Microsoft Excel for parameter estimation.

Data set [2] deals with Human JNK2α2 (Homo sapiens (Human), UniProt P45984). Described as above. Type of data set: biochemical. To be noted: Human JNK2α2, 1 nM enzyme, 1 μM ATF2, 8 μM ATP; read-out: JNK2 − IC50. On the procedure: as §1

Where only a bound is given, the exact number is not on record here.

Chain of Human JNK2α2 (P45984 whole entry): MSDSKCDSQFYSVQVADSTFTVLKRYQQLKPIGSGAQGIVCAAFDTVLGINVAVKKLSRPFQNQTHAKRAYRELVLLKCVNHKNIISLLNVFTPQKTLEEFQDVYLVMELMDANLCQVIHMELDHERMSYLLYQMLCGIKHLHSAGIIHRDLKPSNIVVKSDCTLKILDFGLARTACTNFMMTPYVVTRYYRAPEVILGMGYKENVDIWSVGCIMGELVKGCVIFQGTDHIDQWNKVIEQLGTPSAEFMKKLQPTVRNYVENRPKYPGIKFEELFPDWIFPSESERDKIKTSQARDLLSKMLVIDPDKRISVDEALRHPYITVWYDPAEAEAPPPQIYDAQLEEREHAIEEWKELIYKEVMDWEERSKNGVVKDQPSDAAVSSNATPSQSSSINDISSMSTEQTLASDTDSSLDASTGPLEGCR
Chain of Human JNK1α1 (P45983 other isoform, or with tags, fused parts or gaps): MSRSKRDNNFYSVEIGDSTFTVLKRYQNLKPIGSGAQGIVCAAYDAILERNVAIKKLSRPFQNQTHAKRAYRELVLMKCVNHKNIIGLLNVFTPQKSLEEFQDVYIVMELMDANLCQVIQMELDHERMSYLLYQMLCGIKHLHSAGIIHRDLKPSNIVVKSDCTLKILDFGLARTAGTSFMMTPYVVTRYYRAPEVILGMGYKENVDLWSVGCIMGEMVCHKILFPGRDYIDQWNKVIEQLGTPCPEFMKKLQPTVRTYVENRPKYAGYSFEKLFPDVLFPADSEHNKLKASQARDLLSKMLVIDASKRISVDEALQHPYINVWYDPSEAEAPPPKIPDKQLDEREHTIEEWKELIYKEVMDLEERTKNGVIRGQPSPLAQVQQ

What is called melting point is the temperature of the solid-liquid transition. The IC50 is the concentration that inhibits the measured activity by half. `CCOC(=O)[C@H]1CC[C@H](Nc2nccc(-c3cnc4c(OCc5ccccc5)cccn34)n2)CC1` [Compound 8, 4-[4-(8-benzyloxy-imidazo[1,2-a]pyridine-3-yl)-pyrimidin-2-ylamino]-cyclohexanecarboxylic acid ethyl ester] showed a melting point of 147 to 149 °C. The IC50 in data set [1] is 48.9 nM. Also, the IC50 in data set [2] turned out to be 104 nM.
In the case of `O=C([C@H]1CC[C@H](Nc2nccc(-c3cnc4c(OCc5ccccc5)cccn34)n2)CC1)N1CCC(O)CC1` [Compound 6, {4-[4-(8-Benzyloxy-imidazo[1,2-a]pyridin-3-yl)-pyrimidin-2-ylamino]-cyclohexyl}-(4-hydroxy-piperidin-1-yl)-methanone], the melting point was 210 to 212 °C. For the same compound, the IC50 in data set [1] amounted to 33.3 nM. For the same compound, the IC50 in data set [2] is 55.9 nM.
`CS(=O)(=O)N[C@H]1CC[C@H](Nc2nccc(-c3cnc4ccccn34)n2)CC1` [Compound 10, N-[4-(4-Imidazo[1,2-a]pyridin-3-yl-pyrimidin-2-ylamino)-cyclohexyl]-methanesulfonamide] yielded a melting point of 259 to 261 °C. Also, the IC50 in data set [1] was 56.7 nM. Also, in data set [2], the IC50 is 214 nM.
As for `CC(C)(O)c1cccn2c(-c3ccnc(N[C@H]4CC[C@H](CS(C)(=O)=O)CC4)n3)cnc12` [Compound 1, 2-{3-[2-(4-methanesulfonylmethyl-cyclohexylamino)-pyrimidin-4-yl]-imidazo[1,2-a]pyridin-8-yl}-propan-2-ol], the melting point fell in the range of 223 to 224 °C. Besides, in data set [2], the IC50 came to 295 nM.
`O[C@H]1CC[C@H](Nc2nccc(-c3cnc4c(OCc5ccccc5)cccn34)n2)CC1` [Compound 9, 4-[4-(8-Benzyloxy-imidazo[1,2-a]pyridin-3-yl)-pyrimidin-2-yl-amino]-cyclohexanol]: the melting point fell in the range of 236 to 238 °C. For the same compound, in data set [1], the half-inhibitory concentration (IC50) is 26.9 nM. Moreover, in data set [2], the 50% inhibitory concentration (IC50) worked out at 49.4 nM.
`CN(C)S(=O)(=O)N[C@H]1CC[C@H](Nc2nccc(-c3cnc4c(C(C)(C)O)cccn34)n2)CC1` [Compound 4, N-(4-{4-[8-(1-Hydroxy-1-methyl-ethyl)-imidazo[1,2-a]pyridine-3-yl]-pyrimidin-2-ylamino}-cyclohexyl)-(N,N-dimethylamino)sulfonamide] had a melting point above 300 °C. Besides, the IC50 in data set [2] amounted to 124 nM.
Compound `CC(C)(O)c1cccn2c(-c3ccnc(N[C@H]4CC[C@H](NS(C)(=O)=O)CC4)n3)cnc12` [Compound 3, N-(4-{4-[8-(1-Hydroxy-1-methyl-ethyl)-imidazo[1,2-a]pyridine-3-yl]-pyrimidin-2-ylamino}-cyclohexyl)-methanesulfonamide] came in with a melting point of 249 to 250 °C.
On to `O[C@H]1CC[C@H](Nc2nccc(-c3cnc4ccccn34)n2)CC1` [Compound 11, 4-(4-Imidazo[1,2-a]pyridin-3-yl-pyrimidin-2-ylamino)-cyclohexanol], for which the IC50 is 86.6 nM in data set [1] and 254 nM in data set [2].
Compound `CS(=O)(=O)CCCOc1cccn2c(-c3ccnc(N[C@H]4CC[C@H](C(=O)N5CCC(O)CC5)CC4)n3)cnc12` [Compound 5, (4-Hydroxy-piperidin-1-yl)-(4-{4-[8-(3-methanesulfonyl-propoxy)-imidazo[1,2-a]pyridin-3-yl]-pyrimidin-2-ylamino}-cyclohexyl)-methanone] showed a melting point of 258 to 259 °C. Moreover, the IC50 in data set [1] was determined as 21.6 nM. Moreover, in data set [2], the half-inhibitory concentration (IC50) turned out to be 50.3 nM.
In the case of `CS(=O)(=O)N[C@H]1CC[C@H](Nc2nccc(-c3cnc4c(OCc5ccccc5)cccn34)n2)CC1` [Compound 7, N-{4-[4-(8-benzyloxy-imidazo[1,2-a]pyridin-3-yl)-pyrimidin-2-ylamino]-cyclohexyl}-methanesulfonamide], the melting point was 236.9 to 241 °C. Moreover, the 50% inhibitory concentration (IC50) in data set [1] came out at 23.7 nM. Also, in data set [2], the half-inhibitory concentration (IC50) turned out to be 52.7 nM.
In turn, `CC(C)(O)c1cccn2c(-c3ccnc(N[C@H]4CC[C@H](C(=O)N5CCC(O)CC5)CC4)n3)cnc12` [Compound 2, (4-{4-[8-(1-hydroxy-1-methyl-ethyl)-imidazo[1,2-a]pyridin-3-yl]-pyrimidin-2-ylamino}-cyclohexyl)-(4-hydroxy-piperidin-1-yl)-methanone] gave a melting point of 188 to 190 °C. In addition, the IC50 in data set [2] came out at 369 nM.

For the origin of these results see patent US8569306B2, “JNK modulators” (Hoffmann-La Roche, Inc., priority 2009, dated 2013).
